# Experimental data as given in patent US20010031768A1, “Triazole antifungal agent” (SANKYO COMPANY LIMITED, priority 1995, published 2001).
# Like-named read-outs stand apart in the source and are kept apart here.
# Test system: Candida albicans
# Assay: Survival of mice infected with Candida albicans after oral administration
# Format: in vivo
# Conditions: for responders at 20 mg/kg: po
# Procedure: To mice (one group consisting of 10 mice), which were innoculated with 4 to 9×10^6 Candida albicans, were administered orally 20 mg/kg of preparations after 1, 4 and 24 hours, and thereafter the survival rate until 21 days after infection was examined.
# [1] = 336 h, mice inoculated with 4 to 9×10^6 Candida albicans, 20 mg/kg orally after 1, 4 and 24 hours, 14 days after infection, read-out: Survival rate % 14 days
# [2] = 504 h, mice inoculated with 4 to 9×10^6 Candida albicans, 20 mg/kg orally after 1, 4 and 24 hours, 21 days after infection, read-out: Survival rate % 21 days
structure (smiles),measurement,setting,value
"CC(C)(SC1COC(/C=C/c2ccc(C(F)(F)F)cc2)OC1)C(O)(Cn1cncn1)c1ccc(C(F)(F)F)cc1 (racemic) [Example 30, (RS)-3-Methyl-1-(1 H-1,2,4-triazol-1-yl)-2-[4-(trifluoromethyl)phenyl]-3-[[trans-2-[(E)-2-[4-(trifluoromethyl)phenyl]vinyl]-1,3-dioxan-5-yl]thio]-2-butanol]",responders at 20 mg/kg,[1],100%
same,responders at 20 mg/kg,[2],100%
"C[C@@H](S[C@H]1CO[C@H](/C=C/c2ccc(C(F)(F)F)cc2)OC1)[C@](O)(Cn1cncn1)c1ccc(F)cc1F [Example 2, (2R,3R)-2-(2,4-Difluorophenyl)-3-[[trans-2-[(E)-2-[4-(trifluoromethyl)phenyl]vinyl]-1,3-dioxan-5-yl]thio]-1-(1 H-1,2,4-triazol-1-yl)-2-butanol]",responders at 20 mg/kg,[1],100%
same,responders at 20 mg/kg,[2],100%
"C[C@@H](S[C@H]1CO[C@H](/C=C/c2ccc(OC(F)(F)F)cc2)OC1)[C@](O)(Cn1cncn1)c1ccc(F)cc1F [Example 11, (2R,3R)-2-(2,4-Difluorophenyl)-1-(1 H-1,2,4-triazol-1-yl)-3-[[trans-2-[(E)-2-[4-(trifluoromethoxy)phenyl]vinyl]-1,3-dioxan-5-yl]thio]-2-butanol]",responders at 20 mg/kg,[1],100%
same,responders at 20 mg/kg,[2],100%
"C[C@@H](S[C@H]1CO[C@H](/C=C/C=C/c2ccc(C(F)(F)F)cc2)OC1)[C@](O)(Cn1cncn1)c1ccc(F)cc1F [Example 15, (2R,3R)-2-(2,4-Difluorophenyl)-1-(1 H-1,2,4-triazol-1-yl) -3-[[trans-2-[(1 E,3 E)-4-[4-(trifluoromethyl)phenyl]-1,3-butadien-1-yl]-1,3-dioxan-5-yl]thio]-2-butanol]",responders at 20 mg/kg,[1],100%
same,responders at 20 mg/kg,[2],100%
"C[C@@H](S[C@H]1CO[C@H](/C=C/C=C/c2ccc(OCC(F)(F)C(F)F)cc2)OC1)[C@](O)(Cn1cncn1)c1ccc(F)cc1F [Example 16, (2R,3R)-2-(2,4-Difluorophenyl)-3-[[trans-2-[(1 E,3 E)-4-[4-(2,2,3,3-tetrafluoropropoxy)phenyl]-1,3-butadien-1-yl]-1,3-dioxan-5-yl]thio]-1-(1 H-1,2,4-triazol-1-yl)-2-butanol]",responders at 20 mg/kg,[1],100%
same,responders at 20 mg/kg,[2],100%
"C[C@@H](S[C@H]1CO[C@H](/C=C/C=C(/c2ccc(Cl)cc2)C(F)(F)F)OC1)[C@](O)(Cn1cncn1)c1ccc(F)cc1F [Example 18, (2R,3R) -2-(2,4-Difluorophenyl)-3-[[trans-2-[(1 E,3 Z)-4-(4-chlorophenyl)-5,5,5-trifluoro-1,3-pentadien-1-yl]-1,3-dioxan-5-yl]thio]-1-(1 H-1,2,4-triazol-1-yl)-2-butanol]",responders at 20 mg/kg,[1],100%
same,responders at 20 mg/kg,[2],100%
"C[C@@H](SC1CCN(C(=O)/C=C/c2ccc(OC(F)(F)F)cc2)CC1)[C@](O)(Cn1cncn1)c1ccc(F)cc1F [Example 21, (2R,3R)-2-(2,4-Difluorophenyl) -3-[[1-[(E)-4-(trifluoromethoxy)cinaamoyl]piperidin-4-yl]thio]-1-(1 H-1,2,4-triazol-1-yl)-2-butanol]",Survival rate % 14 days,"mice inoculated with 4 to 9×10^6 Candida albicans, 20 mg/kg orally after 1, 4 and 24 hours, 14 days after infection",100%
same,Survival rate % 21 days,"mice inoculated with 4 to 9×10^6 Candida albicans, 20 mg/kg orally after 1, 4 and 24 hours, 21 days after infection",60%
"C[C@@H](S[C@H]1CO[C@H](/C=C/C=C/c2ccc(SC(F)(F)F)cc2)OC1)[C@](O)(Cn1cncn1)c1ccc(F)cc1F [Example 32, (2R,3R)-2-(2,4-Difluorophenyl)-1-(1 H-1,2,4-triazol-1-yl)-3-[[trans-2-[(1E, 3E) -4-[4-(trifluoromethylthio)phenyl]-1,3-butadien-1-yl]-1,3-dioxan-5-yl]thio]-2-butanol]",responders at 20 mg/kg,[1],100%
same,responders at 20 mg/kg,[2],100%
"C[C@@H](S[C@H]1CO[C@H](/C=C/C=C/c2ccc([S+]([O-])C(F)(F)F)cc2)OC1)[C@](O)(Cn1cncn1)c1ccc(F)cc1F (stereo partly drawn) [Example 35, (2R,3R)-2-(2,4-Difluorophenyl)-1-(1 H-1,2,4-triazol-1-yl)-3-[[trans-2-[(1E,3E)-4-[4-(trifluoromethylsulfinyl)phenyl]-1,3-butadien-1-yl]-1,3-dioxan-5-yl]thio]-2-butanol]",responders at 20 mg/kg,[1],100%
same,responders at 20 mg/kg,[2],100%
"CC(SC1COC(/C=C/C=C/C=C/c2ccc(C(F)(F)F)cc2)OC1)C(O)(Cn1cncn1)c1ccc(F)cc1F [Example 37, (2R,3R)-2-(2,4-Difluorophenyl)-1-(1 H-1,2,4-triazol-1-yl)-3-[[trans-2-[(1E,3E,5E)-6-[4-(trifluoromethyl)phenyl]-1,3,5-hexatrien-1-yl]-1,3-dioxam-5-yl]thio]-2-butanol]",responders at 20 mg/kg,[1],100%
same,responders at 20 mg/kg,[2],100%
"OC(Cn1cncn1)(Cn1cncn1)c1ccc(F)cc1F [Fluconazol, reference compound]",responders at 20 mg/kg,"Candida albicans, 336 h, read-out: Survival rate % 14 days",70%
same,responders at 20 mg/kg,"Candida albicans, 504 h, read-out: Survival rate % 21 days",60%
